Test results published in patent US5441894A, “Device containing a light absorbing element for automated chemiluminescent immunoassays” (Abbott Laboratories, priority 1993, dated 1995).

System: Anti-phencyclidine antibodies
Test: Ion-Capture Competitive Binding Assay For Phencyclidine (PCP) in Urine

c1ccc(C2(N3CCCCC3)CCCCC2)cc1 [PCP, phencyclidine]
% Bound (25 ng/mL PCP in urine, Side A): 83.00%
% Bound (25 ng/mL PCP in urine, Side B): 85.50%
% Bound (60 ng/mL PCP in urine, Side A): 94.60%
% Bound (60 ng/mL PCP in urine, Side B): 94.19%
% Bound (120 ng/mL PCP in urine, Side A): 97.44%
% Bound (120 ng/mL PCP in urine, Side B): 97.54%
% Bound (250 ng/mL PCP in urine, Side A): 99.28%
% Bound (250 ng/mL PCP in urine, Side B): 99.32%
% Bound (500 ng/mL PCP in urine, Side A): 100.00%
% Bound (500 ng/mL PCP in urine, Side B): 100.00%
